# Legend:
# Assay in all cases: cells
# KARPAS-299 = settings: Homo sapiens
# Description: Antiproliferative activity against human KARPAS-299 cells harbouring wild type ALK assessed as reduction in cell viability by Celltitre-Glo luminescent assay
# BaF3 [1] = settings: Mus musculus
# Description: Antiproliferative activity against mouse BaF3 cells harbouring ALK wild type assessed as reduction in cell viability by Celltitre-Glo luminescent assay
# BaF3 [2] = settings: Mus musculus; remark: listed apart in the source
# Description: Antiproliferative activity against mouse BaF3 cells harbouring ALK L1196M mutant assessed as reduction in cell viability by Celltitre-Glo luminescent assay
# BaF3 [3] = settings: Mus musculus; remark: listed apart in the source
# Description: Antiproliferative activity against mouse BaF3 cells harbouring ALK C1156Y mutant assessed as reduction in cell viability by Celltitre-Glo luminescent assay
IC50 (KARPAS-299) [nM],IC50 (BaF3 [1]) [nM],IC50 (BaF3 [2]) [nM],IC50 (BaF3 [3]) [nM],SMILES
36,11,27,30,COc1cc(C2CCC3(CC2)CCN(C)CC3)ccc1Nc1ncc(Cl)c(Nc2ccccc2P(C)(C)=O)n1
78,–,–,–,COc1cc(N2CCC3(CCNC3)CC2)ccc1Nc1ncc(Cl)c(Nc2ccccc2P(C)(C)=O)n1
15,–,–,–,COc1cc(N2CCC3(CCN(C)CC3)CC2)c(F)cc1Nc1ncc(Cl)c(Nc2ccccc2P(C)(C)=O)n1

# Reference: ChEMBL document CHEMBL5143665, “Discovery and preclinical evaluations of WX-0593, a novel ALK inhibitor targeting crizotinib-resistant mutations” (Bioorg Med Chem Lett, 2022)
